Values quoted from earlier work as cited in publication PMC12525602, “Identification of Selective α-Glucosidase Inhibitors via Virtual Screening with Machine Learning” (Molecules, 2025).

system: α-glucosidase; conditions: activity label in the 300-compound modeling dataset (Table S5); 1 = active, 0 = inactive; cited from earlier work

| Compound | activity |
| --- | --- |
| COc1cccc(C(=O)C2C(O)c3ccccc3S(=O)(=O)N2CC(=O)Nc2ccc(Br)cc2)c1 (stereo not shown) [compound 202] | 1 |
| Oc1cccc(-c2cc3cccc(Cl)c3o2)c1 [compound 203] | 1 |
| COc1cc(/C=C/C(=O)O)cc(-c2cc(/C=C/C(=O)O)cc(OC)c2O)c1O [compound 205] | 1 |
| O=C(NNS(=O)(=O)c1ccc(F)cc1)c1cc2cc(F)ccc2[nH]1 [compound 207] | 1 |
| Cc1ccc(-c2cc(C(F)(F)F)nn2-c2ccc(S(=O)(=O)NC(=O)c3ccc(Br)cc3)cc2)cc1 [compound 208] | 1 |
| Oc1cccc(-c2cc3cccc(Br)c3o2)c1 [compound 209] | 1 |
| COc1cc(/C=C/C(=O)O)ccc1O/C(=C\c1cc(OC)c(O)c(-c2cc(/C=C/C(=O)O)cc(OC)c2O)c1)C(=O)O [compound 210] | 1 |
| O=C1CC(c2ccc(O)cc2)Oc2cc(O)cc(O)c21 (stereo not shown) [compound 211] | 1 |
| Oc1cc(O)cc(-c2cc3cccc(Cl)c3o2)c1 [compound 212] | 1 |
| COc1ccc(/C(CSc2nnc3c(n2)[nH]c2ccccc23)=N\c2nnc(-c3ccccc3[N+](=O)[O-])s2)cc1 [compound 213] | 1 |
| O=C(COc1c(I)cc(Cl)c2cccnc12)c1ccccc1 [compound 214] | 1 |
| CC(C)(C)c1ccc(-c2csc(N/N=C/c3ccccc3OCc3cc4ccccc4oc3=O)n2)cc1 [compound 215] | 1 |
| COc1ccc(/C(CSc2nnc3c(n2)[nH]c2ccccc23)=N\c2nnc(-c3ccc([N+](=O)[O-])cc3)s2)cc1 [compound 217] | 1 |
| O=c1c(O)c(-c2ccc(O)cc2)oc2c(O)c(O)cc(O)c12 [compound 219] | 1 |
| C=C(C)[C@@H]1CCC2=Cc3nc(NC(=O)c4ccc(Cl)cc4)sc3[C@@H](C)[C@]2(C)C1 [compound 220] | 1 |
| Oc1c(Cl)cc(Cl)cc1-c1nnc(/N=C(/CSc2nnc3c(n2)[nH]c2ccccc23)c2ccc(-c3ccccc3)cc2)s1 [compound 221] | 1 |
| O=[N+]([O-])c1ccccc1-c1nnc(/N=C(/CSc2nnc3c(n2)[nH]c2ccccc23)c2ccc(-c3ccccc3)cc2)s1 [compound 223] | 1 |
| COc1cc(/C=N/N=C2\C(=O)Nc3ccccc32)ccc1OCc1cn(Cc2ccccc2)nn1 [compound 224] | 1 |
| O=C(CCc1ccc(NS(=O)(=O)c2ccc(C(F)(F)F)cc2)cc1)N1CC[C@H](O)[C@H](O)C1 [compound 225] | 1 |
| O=C(NNS(=O)(=O)c1ccccc1F)c1cc2cc(F)ccc2[nH]1 [compound 226] | 1 |
| Fc1ccc(CNc2cccc(-c3nc4ccccc4[nH]3)c2)cc1 [compound 227] | 1 |
| CCOC(=O)c1ccc(-n2c(/C=C3\OC(=O)c4c3cc(C)[nH]c4=O)ccc2CO)cc1 [compound 228] | 1 |
| C[C@@H]1O[C@@H](O[C@H]2C(=O)c3c(O)cc(O)cc3O[C@@H]2c2ccc(O)c(O)c2)[C@H](O)[C@H](O)[C@H]1O [compound 229] | 1 |
| O=[N+]([O-])c1ccc(-c2nnc(/N=C(/CSc3nnc4c(n3)[nH]c3ccccc34)c3ccc(-c4ccccc4)cc3)s2)cc1 [compound 230] | 1 |
| O=c1c(O)c(-c2ccc(O)c(O)c2)oc2cc(O)ccc12 [compound 231] | 1 |

same assay, conditions: activity label of the 300-compound modeling dataset, Table S5; cited from earlier work

| Compound | activity |
| --- | --- |
| Oc1cc(O)cc(-c2cc3cccc(Br)c3o2)c1 [compound 232] | 1 |
| O=C1CC(/C=N/Nc2cccc(Br)c2)Oc2ccccc21 (stereo not shown) [compound 233] | 1 |
| CC(C)(C)c1ccc(N/N=C/C2CC(=O)c3ccccc3O2)cc1 (stereo not shown) [compound 234] | 1 |
| O=C1CC(/C=N/Nc2ccc(F)cc2)Oc2ccccc21 (stereo not shown) [compound 235] | 1 |
| Clc1ncccc1CNc1cccc(-c2nc3ccccc3[nH]2)c1 [compound 237] | 1 |
| Cc1ccc(C(=O)COc2c(I)cc(Cl)c3cccnc23)cc1 [compound 238] | 1 |
| Cc1ccc(/C(CSc2nnc3c(n2)[nH]c2ccccc23)=N\c2nnc(-c3ccc([N+](=O)[O-])cc3)s2)cc1 [compound 239] | 1 |
| O=C(COc1c(I)cc(Cl)c2cccnc12)c1ccc(Cl)cc1 [compound 241] | 1 |
| O=C(COc1c(I)cc(Cl)c2cccnc12)c1ccc(-c2ccccc2)cc1 [compound 242] | 1 |
| COc1ccccc1/C(CSc1nnc2c(n1)[nH]c1ccccc12)=N\c1nnc(-c2ccc(Cl)c(Cl)c2)s1 [compound 243] | 1 |
| O=c1c(O)c(-c2ccc(O)cc2)oc2cc(O)cc(O)c12 [compound 244] | 1 |
| O=C(/C=C/c1cc(F)c(O)c(F)c1)c1cccc2[nH]c(=O)oc12 [compound 245] | 1 |
| O=C(/C=C/c1ccc(O)c(F)c1)c1cccc2[nH]c(=O)oc12 [compound 246] | 1 |
| O=C(/C=C/c1ccc(O)cc1)c1cccc2[nH]c(=O)oc12 [compound 247] | 1 |
| O=C(COc1c(I)cc(Cl)c2cccnc12)c1ccc([N+](=O)[O-])cc1 [compound 248] | 1 |
| COc1ccc(/C(CSc2nnc3c(n2)[nH]c2ccccc23)=N\c2nnc(-c3ccc(Cl)c(Cl)c3)s2)cc1 [compound 249] | 1 |
| O=C(N/N=C/C1CC(=O)c2ccccc2O1)c1ccc(O)cc1 (stereo not shown) [compound 250] | 1 |
| N#Cc1cccc(N/N=C/C2CC(=O)c3ccccc3O2)c1 (stereo not shown) [compound 251] | 1 |
| O=c1c(O)c(-c2ccc(O)cc2)oc2cc(O)ccc12 [compound 252] | 1 |
| COc1cc(/C=N/N=C2\C(=O)Nc3ccccc32)ccc1OCc1cn(Cc2ccc(C)cc2)nn1 [compound 253] | 1 |
| Brc1ccc(CNc2cccc(-c3nc4ccccc4[nH]3)c2)cn1 [compound 254] | 1 |
| O=C1C(=NNc2nncs2)c2ccccc2N1Cc1ccc(Cl)cc1 [compound 255] | 1 |
| O=C(COc1c(I)cc(Cl)c2cccnc12)c1ccc(Br)cc1 [compound 256] | 1 |

| Compound | activity |
| --- | --- |
| Cc1ccc(-c2cnc3ccccc3n2)cc1 [compound 257] | 1 |
| CN(C)c1ccc(/C=N/CCc2ccc(O)cc2)cc1 [compound 258] | 1 |
| O=C1Nc2ccccc2/C1=N/N=C/c1ccc(OCc2cn(Cc3ccccc3)nn2)cc1 [compound 259] | 1 |
| Fc1cccc(CNc2cccc(-c3nc4ccccc4[nH]3)c2)c1 [compound 260] | 1 |
| COc1cc(-c2nc3ccccc3[nH]2)ccc1OCC(=O)Nc1ccc(F)cc1 [compound 261] | 1 |
| O=C1C(=NN=Cc2ccc(OCc3cn(Cc4ccc(F)cc4)nn3)cc2)c2ccccc2N1c1ccc(Br)cc1 [compound 262] | 1 |
| Cc1ccccc1Cn1cc(COc2ccc(/C=N/N=C3\C(=O)Nc4ccccc43)cc2)nn1 [compound 263] | 1 |
| COC(=O)Cn1c(=O)oc2c(C(=O)/C=C/c3cc(F)c(O)c(F)c3)cccc21 [compound 264] | 1 |
| Brc1cccc(CNc2cccc(-c3nc4ccccc4[nH]3)c2)n1 [compound 265] | 1 |
| COc1ccc2nc3cc(Cl)ccc3c(SCC(=O)NCc3cccc(Cl)c3)c2c1 [compound 266] | 1 |
| Cc1cc(C)cc(Cn2cc(COc3ccc(-c4nc(-c5ccccc5)c(-c5ccccc5)[nH]4)cc3)nn2)c1 [compound 267] | 1 |
| O=C(COc1c(I)cc(Cl)c2cccnc12)c1cccc(Br)c1 [compound 268] | 1 |
| Oc1cccc(-c2nnc(/N=C(/CSc3nnc4c(n3)[nH]c3ccccc34)c3ccc(-c4ccccc4)cc3)s2)c1 [compound 269] | 1 |
| COc1cccc(CNc2cccc(-c3nc4ccccc4[nH]3)c2)n1 [compound 270] | 1 |
| O=C1Nc2ccccc2/C1=N/N=C/c1ccc(OCc2cn(Cc3ccc(F)cc3)nn2)cc1 [compound 271] | 1 |
| Cn1ccnc1SC(=O)c1ccc(-c2ccccc2F)o1 [compound 272] | 1 |
| O=C(/C=C/c1ccc(Cl)cc1)c1cc2ccccc2oc1=O [compound 273] | 1 |
| O=C(/C=C/c1ccc(O)c(O)c1)c1cccc2[nH]c(=O)oc12 [compound 274] | 1 |
| Brc1ccc(CNc2cccc(-c3nc4ccccc4[nH]3)c2)cc1 [compound 275] | 1 |
| O=C(COc1c(I)cc(Cl)c2cccnc12)c1ccc(Cl)cc1Cl [compound 276] | 1 |
| Cc1ccc(/C(CSc2nnc3c(n2)[nH]c2ccccc23)=N\c2nnc(-c3ccc(Cl)c(Cl)c3)s2)cc1 [compound 277] | 1 |
| c1ccc(-c2cnc3ccccc3n2)cc1 [compound 278] | 1 |

same assay, conditions: activity label of the modeling dataset, sheet Table S5; 1 = active, 0 = inactive; cited from earlier work

| Compound | activity |
| --- | --- |
| COc1ccc(/C=N/N=C(/C)c2ccc([N+](=O)[O-])cc2)cc1 [compound 279] | 1 |
| CC(C)=CCn1c(=O)oc2c(C(=O)/C=C/c3cc(F)c(O)c(F)c3)cccc21 [compound 280] | 1 |
| Cc1ccc(-c2cc(C(F)(F)F)nn2-c2ccc(S(=O)(=O)NC(=O)c3ccc(C)c([N+](=O)[O-])c3)cc2)cc1 [compound 281] | 1 |
| Clc1ccc(-c2cnc3ccccc3n2)c(Cl)c1 [compound 283] | 1 |
| COC(=O)Cn1c(=O)oc2c(C(=O)/C=C/c3ccc(O)c(F)c3)cccc21 [compound 284] | 1 |
| CCC/C=N/N=C(/C)c1ccc([N+](=O)[O-])cc1 [compound 285] | 1 |
| O=[N+]([O-])c1ccc(-c2cnc3ccccc3n2)cc1 [compound 286] | 1 |
| COC(=O)Cn1c(=O)oc2c(C(=O)/C=C/c3ccc(O)cc3)cccc21 [compound 287] | 1 |
| c1ccc(-c2ccc(-c3cnc4ccccc4n3)cc2)cc1 [compound 288] | 1 |
| O=c1c(O)c(-c2ccc(O)c(O)c2)oc2cc(O)cc(O)c12 [compound 289] | 1 |
| Clc1cccc(-c2cnc3ccccc3n2)c1 [compound 290] | 1 |
| COc1ccc(/C=N/N=C(/C)c2ccc([N+](=O)[O-])cc2)c(OC)c1 [compound 291] | 1 |
